This passage reports effect on diabetes, fasting blood glucose and blood glucose results from patent US10632115B2, “Use of a statin compound as local drug for treating obesity, diabetes, hypertension and hyperlipemia” (Peking University Third Hospital, priority 2015, dated 2020).

For test [1] the following is noted: oral atorvastatin 10 mg/day, simvastatin 40 mg/day; cited from earlier work.
For another test, the system named is diabetic rats. Kind of test: Fasting blood glucose assay in diabetic rats after single intraosseous statin injection. The following applies: 1-14 weeks after single intraosseous injection (fluvastatin 8 mg, atorvastatin 4 mg, rosuvastatin 2 mg); tail blood, glucose meter. The test is classed as in vivo, rat.
For another test, the system named is type 2 diabetes patients. The note with it: oral atorvastatin 10 mg/d for 16 weeks added to conventional antidiabetic; vs control group; cited from earlier work.

Description for diabetic rats: 36 three-month-old male SD rats (250-300 g) rats were accommodated for one week, in accordance with standard procedures of diabetic rat model, intraperitoneal injection of streptozotocin (STZ, Sigma Company) 40 mg/kg, the next day administration of high fat diet (purchased from Institute of Zoology, recipe: 68.5% base stock, lard 20%, 10% sucrose, 1% cholesterol and 0.5% porcine bile salts).
Two months later, all the rats were abnormally elevated blood glucose (above 19.5 mmol/L), indicate a successful model (Zhouguang Xing animal models of human disease replication methodology Shanghai Science and Technology Literature Press, 2008: 167-168 SHI Xin animal models of human disease People's Health Press, 2008: 301-305). […] Bone wax pinhole puncture closure avoiding leakage and sutured wounds.
After the rats were fasted 6 h, take one drop of blood (about 50 ul) from the rat tail and placed in the blood sugar test paper (Roche), 2 seconds later, fasting blood glucose were determinated by Roche glucose meter (ACCU-CHEK Performa). […]

Consider `CC(C)c1c(C(=O)Nc2ccccc2)c(-c2ccccc2)c(-c2ccc(F)cc2)n1CC[C@@H](O)C[C@@H](O)CC(=O)O` [atorvastatin], for which, in test [1], the effect on diabetes result is listed as “no effect”. The fasting blood glucose entry in the test with diabetic rats is given as “significantly reduced”. The blood glucose result in the test on type 2 diabetes patients is “much better than the control group”.

Take `CC(C)c1nc(N(C)S(C)(=O)=O)nc(-c2ccc(F)cc2)c1/C=C/[C@@H](O)C[C@@H](O)CC(=O)O` [rosuvastatin]: in the test with diabetic rats, the fasting blood glucose result is “significantly reduced”.
